“And” between values parts separate entries of the source, which are not always exact repeats. Equal values may be shown once. Read-outs that look alike come from different tables or passages of the source.
How the values were obtained:
B16-F10 [1] = assay: Growth inhibition of B16-F10 in media containing 1% or 10% FBS; format: cell-based, mouse
[2] = molecular target: T1, chymotrypsin-like activity of 20S proteasomes in RPMI 8226 cells (Homo sapiens, UniProt P28074); assay: Chymotrypsin-like activity of 20S proteasomes in lysates of treated RPMI 8226 cells; format: cell-based
T1 construct: added to 2.5×10^5/ml RMPI 8226 cells; endogenous in cells; host or cells: RPMI 8226 (ATCC CCL-155)
T1 sequence (P28074 60-263): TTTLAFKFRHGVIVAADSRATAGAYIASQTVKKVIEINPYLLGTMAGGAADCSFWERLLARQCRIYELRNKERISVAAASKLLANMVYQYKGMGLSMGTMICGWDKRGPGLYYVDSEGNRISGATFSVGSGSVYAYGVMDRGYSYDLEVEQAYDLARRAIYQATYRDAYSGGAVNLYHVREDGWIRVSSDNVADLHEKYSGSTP
Procedure: RPMI 8226 (ATCC, CCL-155), the human multiple myeloma cell line, was cultured in RPMI 1640 medium supplemented with 2 mM L-glutamine, 100 units/ml penicillin, 100 μg/ml streptomycin, 1 mM sodium pyruvate and 10% heat inactivated fetal bovine serum at 37° C., 5% CO2 and 95% humidified air. […] DMSO was used as the vehicle control at a final concentration of 0.1%. Following 1 hr incubation of RMPI 8226 cells with the compounds, the cells were pelleted by centrifugation at 2,000 rpm for 10 sec at room temperature and washed 3× with ice-cold 1× Dulbecco's Phosphate-Buffered Saline (DPBS, Mediatech, Herndon, Va.). DPBS washed cells were lysed on ice for 15 min in lysis buffer (20 mM HEPES, 0.5 mM EDTA, 0.05% Triton X-100, pH 7.3) supplemented with protease inhibitor cocktail (Roche Diagnostics, Indianapolis, Ind.). Cell debris was pelleted by centrifugation at 14,000 rpm for 10 min, 4° C. and supernatants (=cell lysates) were transferred to a new tube. Protein concentration was determined by the BCA protein assay kit (Pierce Biotechnology, Rockford, Ill.). […] The released coumarin (AMC) was measured fluorometrically by using λex=390 nm and λem=460 nm. The assay was performed in a microtiter plate (Corning 3904) and followed kinetically with measurements every five minutes for 2 hr. The total amount of protein used for each assay was 20 μg. The final concentration of Suc-LLVY-AMC and DMSO was 20 μM and 0.2%, respectively.

NF-κB = assay: NF-κB-mediated luciferase reporter gene assay, HEK293 NF-κB/Luc cells, TNF-α stimulation; format: cell-based, human
How it was run: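 Cells seeded at 1.5×10^4/well in phenol-red free DMEM, pretreated 1 h with 8-point half-log compound dilutions (DMSO stocks), then stimulated with TNF-α (10 μl of 50 ng/ml solution) for 6 h. Luciferase read as RLU after 10 min with Steady Lite reagent at room temperature.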

HT-29 [3] = assay: Growth inhibition of HT-29 in media containing 1% or 10% FBS; format: cell-based, human; conditions: for EC50: Homo sapiens, HT-29, read-out: HT-29, EC50 (nM) mean ± SD
RPMI 8226 [4] = assay: cells; conditions: for EC50: Homo sapiens
Procedure: RPMI 8226 (CCL-155), HT-29 (HTB-38), and B16-F10 (CRL-6475) cells were purchased from ATCC. RPMI 8226 cells were maintained in RPMI 1640 media supplemented with 10% (v/v) FBS, 2 mM L-glutamine, 1 mM sodium pyruvate and Penicillin/Streptomycin at 100 IU/ml and 100 μg/ml, respectively. HT-29 cells were maintained in McCoys 5A supplemented with 10% (v/v) FBS, 2 mM L-glutamine, 1 mM sodium pyruvate, 1% (v/v) non-essential amino acids, 10 mM HEPES and Penicillin/Streptomycin at 100 IU/ml and 100 μg/ml, respectively. B16-F10 cells were maintained in DMEM supplemented with 10% (v/v) FBS, 2 mM L-glutamine, 10 mM HEPES and Penicillin/Streptomycin at 100 IU/ml and 100 μg/ml, respectively.
RPMI 8226 cells were seeded at 2×10^4 cells/well in 90 μl RPMI media containing 10% (v/v) FBS or 1% (v/v) FBS into 96 well black-walled, clear-bottom tissue culture plates. […] Formulae II-16, II-17 and Formula II-18 were serially diluted in media containing 1% or 10% FBS and added in triplicate to the test wells. […] The final concentration of Formula II-18 ranged from 2 μM to 630 pM.

[5] = molecular target: T2, chymotrypsin-like activity of 20S proteasomes in PC-3 cells (Homo sapiens, UniProt P28074); assay: Chymotrypsin-like activity of 20S proteasomes in lysates of treated PC-3 cells; format: cell-based; conditions: for % inhibition of the chymotrypsin-like activity of 20S proteasomes in PC-3 cell lysates: 1 hr incubation
T2 construct: endogenous in cells; host or cells: PC-3 (ATCC CRL-1435)
Procedure: PC-3 (ATCC, CRL-1435), the human prostate cancer cell line, was cultured in F12K medium supplemented with 2 mM L-glutamine, 100 units/ml penicillin, 100 μg/ml streptomycin and 10% heat inactivated fetal bovine serum at 37° C., 5% CO2 and 95% humidified air. […] DMSO was used as the vehicle control at a final concentration of 0.1%. Following 1 hr incubation of PC-3 cells with the compounds, the cells were washed 3× with ice-cold 1× Dulbecco's Phosphate-Buffered Saline (DPBS, Mediatech, Herndon, Va.). […] Cell debris was pelleted by centrifugation at 14,000 rpm for 10 min, 4° C. and supernatants (=cell lysates) were transferred to a new tube. Protein concentration was determined by the BCA protein assay kit (Pierce Biotechnology, Rockford, Ill.). […] The released coumarin (AMC) was measured fluorometrically by using λex=390 nm and λem=460 nm. The assay was performed in a microtiter plate (Corning 3904) and followed kinetically with measurements every five minutes for 2 hr. The total amount of protein used for each assay was 20 μg. The final concentration of Suc-LLVY-AMC and DMSO was 20 μM and 0.2%, respectively. Results are presented as the percent inhibition of the 20S proteasome chymotrypsin-like activity relative to the DMSO control.

MDA-MB-231 = assay: Cell growth inhibition (resazurin), MDA-MB-231
RPMI 8226 [6] = assay: Cell growth inhibition (resazurin), RPMI 8226; conditions: for EC50: 48 hours drug exposure
HT-29 [7] = assay: Cell growth inhibition (resazurin), HT-29
[8] = molecular target: T3, trypsin-like activity of purified rabbit muscle 20S proteasome (Oryctolagus cuniculus, UniProt G1SWK8); assay: In vitro inhibition of 20S proteasome trypsin-like activity (Boc-LRR-AMC); conditions: under the conditions tested
T3 sequence (G1SWK8 1-271): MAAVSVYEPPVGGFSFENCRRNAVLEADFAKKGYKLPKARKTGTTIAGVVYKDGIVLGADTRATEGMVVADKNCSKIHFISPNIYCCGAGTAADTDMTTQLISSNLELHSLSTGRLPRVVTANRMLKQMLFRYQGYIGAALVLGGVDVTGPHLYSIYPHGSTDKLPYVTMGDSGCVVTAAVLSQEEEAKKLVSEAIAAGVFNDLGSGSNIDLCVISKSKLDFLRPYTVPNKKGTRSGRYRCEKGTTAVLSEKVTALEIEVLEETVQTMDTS

NCI-H292 = assay: Cell growth inhibition (resazurin), NCI-H292
[9] = molecular target: T4, chymotrypsin-like activity of purified rabbit muscle 20S proteasome (Oryctolagus cuniculus, UniProt G1T4Q9); assay: In vitro inhibition of 20S proteasome chymotrypsin-like activity (suc-LLVY-AMC); conditions: EC50 Chymotrypsin-like, Table 6, values in nM
T4 sequence (G1T4Q9 1-263): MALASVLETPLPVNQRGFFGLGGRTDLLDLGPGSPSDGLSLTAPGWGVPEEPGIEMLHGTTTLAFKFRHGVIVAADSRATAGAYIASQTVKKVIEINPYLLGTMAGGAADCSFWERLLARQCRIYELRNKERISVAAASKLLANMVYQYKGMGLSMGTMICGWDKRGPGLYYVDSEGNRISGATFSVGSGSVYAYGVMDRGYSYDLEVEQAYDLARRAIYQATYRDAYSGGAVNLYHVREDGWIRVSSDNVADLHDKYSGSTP

OVCAR-3 = assay: Cell growth inhibition (resazurin), OVCAR-3; conditions: from EC50 values
[10] = tested on: LeTx-mediated cytotoxicity of RAW 264.7 cells; conditions: read-out: EC50 for inhibition of RAW 264.7 cell cytotoxicity mediated by anthrax lethal toxin; 45 minute preincubation, 1 μg/ml LF and PA, six hours; maximum concentration 330 nM
B16-F10 [11] = assay: Cell growth inhibition (resazurin), B16-F10
U266 = assay: Cell growth inhibition (resazurin), U266; conditions: for EC50: 48 hours drug exposure
[12] = molecular target: T5, caspase-like activity of purified rabbit muscle 20S proteasome (Oryctolagus cuniculus, UniProt A0A5F9DQW2); assay: In vitro inhibition of 20S proteasome caspase-like activity (Z-LLE-AMC)
T5 sequence (A0A5F9DQW2 1-212): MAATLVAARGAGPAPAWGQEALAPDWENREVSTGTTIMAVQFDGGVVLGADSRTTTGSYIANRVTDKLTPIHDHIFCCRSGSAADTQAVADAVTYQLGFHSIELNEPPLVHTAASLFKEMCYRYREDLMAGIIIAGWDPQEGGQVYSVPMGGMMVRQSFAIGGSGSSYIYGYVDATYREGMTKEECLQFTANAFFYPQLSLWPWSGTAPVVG

PC-3 = assay: Cell growth inhibition (resazurin), PC-3; format: cell-based, human
[13] = RPMI-8226, read-out: % inhibition of the chymotrypsin-like activity of 20S proteasomes in RPMI 8226 cell lysates
[14] = PC-3, read-out: % inhibition of the chymotrypsin-like activity of 20S proteasomes in PC-3 cell lysates

Compound: C[C@@]12OC(=O)[C@]1([C@@H](O)[C@@H]1C=CCCC1)NC(=O)[C@@H]2CCCl [Formula II-16]
- cytotoxicity against B16-F10 in media containing 1% or 10% FBS, in words (B16-F10 [1]; 1% or 10% FBS): cytotoxic
- EC50 (B16-F10 [1]; Mus musculus, B16-F10, read-out: B16-F10, EC50 (nM) mean ± SD, media containing 1% FBS): 18 ± 9 nM
- % inhibition of the chymotrypsin-like activity of 20S proteasomes in RPMI 8226 cell lysates ([2]; 100 nM, 1 hr incubation, mean ± SD, n = 3, 0.1 µM): completely inhibit
- inhibition at 0.001 µM [2, 13]: 30 ± 7%
- inhibition at 0.005 µM [2, 13]: 85 ± 7%
- inhibition at 0.01 µM [2, 13]: 94 ± 3%
- inhibition at 0.05 µM [2, 13]: 97%
- inhibition at 0.1 µM [2, 13]: 98 ± 1%
- EC50 (NF-κB; Homo sapiens, HEK293, Table 12, read-out: NF-κB EC50): 11 ± 3 nM
- cytotoxicity against HT-29 in media containing 1% or 10% FBS, in words (HT-29 [3]; 1% or 10% FBS): cytotoxic
- EC50 (HT-29 [3]; media containing 1% FBS): 16 ± 5 nM
- EC50 (HT-29 [3]; media containing 10% FBS): 23 ± 10 nM
- cytotoxicity against RPMI 8226 in media containing 1% or 10% FBS, in words (RPMI 8226 [4]; 1% or 10% FBS): cytotoxic
- EC50 (RPMI 8226 [4]; RPMI-8226, read-out: 1% FBS, EC50, RPMI 8226, media containing 1% FBS, single experiments): 6.2 nM
- EC50 (RPMI 8226 [4]; RPMI-8226, read-out: 10% FBS, EC50, RPMI 8226, media containing 10% FBS, single experiments): 12 nM
- EC50 (RPMI 8226 [4]; RPMI-8226, read-out: Mean 10% FBS, EC50, RPMI 8226, media containing 10% FBS, mean): 11 nM
- % inhibition of the chymotrypsin-like activity of 20S proteasomes in PC-3 cell lysates ([5]; 5 nM): 69%
- % inhibition of the chymotrypsin-like activity of 20S proteasomes in PC-3 cell lysates ([5]; 50 nM, 0.05 µM): completely inhibit
- inhibition at 0.005 µM [5, 14]: 69%
- inhibition at 0.05 µM [5, 14]: 98%

Compound: C[C@@]12OC(=O)[C@]1([C@@H](O)[C@H]1CCCC3OC31)NC(=O)[C@@H]2CCCl (single isomer, unassigned) [Formula II-5B]
- cytotoxicity against MDA-MB-231, in words (MDA-MB-231; from EC50 values): cytotoxic
- EC50 (MDA-MB-231; read-out: EC50 against MDA-MB-231, Table 1, 48 hours drug exposure, mean ± SD where n≥3): 957 nM
- cytotoxicity against RPMI 8226, in words (RPMI 8226 [6]; from EC50 values): cytotoxic
- EC50 (RPMI 8226 [6]; read-out: EC50 against RPMI 8226, Table 1): 328 nM
- EC50 (RPMI 8226 [6]; read-out: RPMI 8226 EC50, Table 2, mean ± SD where n≥3): 326 nM and 328 nM
- cytotoxicity against HT-29, in words (HT-29 [7]; from EC50 values): cytotoxic
- EC50 (HT-29 [7]; read-out: EC50 against HT-29, Table 1, 48 hours drug exposure, mean ± SD where n≥3): 1210 nM
- inhibition of the trypsin-like activity of the 20S proteasome, in words [8]: able to inhibit
- cytotoxicity against NCI-H292, in words (NCI-H292; from EC50 values): cytotoxic
- EC50 (NCI-H292; read-out: EC50 against NCI-H292, Table 1, 48 hours drug exposure, mean ± SD where n≥3): 1250 nM
- EC50 [9]: 85 nM
- cytotoxicity against OVCAR-3, in words (OVCAR-3): cytotoxic
- EC50 [10]: 45 nM
- effect on luciferase activity upon TNF-α stimulation, in words (NF-κB; pretreatment of NF-κB/Luc 293 cells): dose-dependent decrease
- EC50 (NF-κB; read-out: EC50, NF-κB-mediated luciferase reporter gene assay, Table 5, values in nM, 1 hr pretreatment, TNF-α 6 hr): 279 nM
- cytotoxicity against B16-F10, in words (B16-F10 [11]; from EC50 values): cytotoxic
- EC50 (B16-F10 [11]; read-out: EC50 against B16-F10, Table 1, 48 hours drug exposure, mean ± SD where n≥3): 1140 nM
- cytotoxicity against U266, in words (U266; from EC50 values): cytotoxic
- EC50 (U266; read-out: EC50 against U266, Table 1): 111 nM
- EC50 (U266; read-out: U266 EC50, Table 2): 118 nM and 111 nM
- EC50 ([12]; EC50 Caspase-like, Table 6, values in μM): 3.8 µM and 2.9 µM
- EC50 ([12]; EC50 values, caspase-like activity, range in mixed units, summary of Table 6, range from nM to μM): 0.956 to 8.7 µM
- EC50 (PC-3; Table 1, 48 hours drug exposure, mean ± SD where n≥3, read-out: EC50 against PC-3): 1330 nM
- cytotoxicity against PC-3, in words (PC-3; from EC50 values): cytotoxic
